One assay relates to Russian thistle. The assay is described as follows: Test C pre-/postemergence herbicide test. It counts as in vivo, Salsola kali. The note with it: Preemergence. The source says:
Seeds of plant species selected from blackgrass (Alopecurus myosuroides), ryegrass, Italian (Italian ryegrass, Lolium multiflorum), wheat (winter wheat, Triticum aestivum), galium (catchweed bedstraw, Galium aparine), corn (Zea mays), crabgrass, large (large crabgrass, Digitaria sanguinalis), foxtail, giant (giant foxtail, Setaria faberii), johnsongrass (Sorghum halepense), lambsquarters (Chenopodium album), morningglory (Ipomoea coccinea), nutsedge, yellow (yellow nutsedge, Cyperus esculentus), pigweed (Amaranthus retroflexus), ragweed (common ragweed, Ambrosia elatior), soybean (Glycine max), barnyardgrass (Echinochloa crus-galli), oilseed rape (Brassica napus), waterhemp (common waterhemp, Amaranthus rudis), kochia (Kochia scoparia), oat, wild (wild oat, Avena fatua), surinam grass (Brachiaria decumbens), foxtail, green (green foxtail, Setaria viridis), goosegrass (Eleusine indica), bromegrass, downy (downy bromegrass, Bromus tectorum), nightshade (eastern black nightshade, Solanum ptycanthum), cocklebur (common cocklebur, Xanthium strumarium), cupgrass, woolly (woolly cupgrass, Eriochloa villosa), bermudagrass (Cynodon dactylon), sunflower, (common oilseed sunflower, Helianthus annuus), Russian thistle (Salsola kali) and velvetleaf (Abutilon theophrasti) were planted into a blend of loam soil and sand and treated preemergence with test chemicals formulated in a non-phytotoxic solvent mixture which included a surfactant. At the same time, plants selected from these crop and weed species and also barley (winter barley, Hordeum vulgare), […]), chickweed (common chickweed, Stellaria media), deadnettle (henbit deadnettle, Lamium amplexicaule), and canarygrass (littleseed canarygrass, Phalaris minor) were planted in pots containing Redi-Earth® planting medium (Scotts Company, 14111 Scottslawn Road, Marysville, Ohio 43041) comprising spaghnum peat moss, vermiculite, wetting agent and starter nutrients and treated with postemergence applications of test chemicals formulated in the same manner. Plants ranged in height from 2 to 18 cm (1- to 4-leaf stage) for postemergence treatments. Treated plants and controls were maintained in a greenhouse for 13 to 15 days, after which time all species were compared to controls and visually evaluated. Plant response ratings, summarized in Table C, are based on a scale of 0 to 100 where 0 is no effect and 100 is complete control. A dash (-) response means no test result.

Another assay concerns smartweed. The assay is described as follows: Test E preemergence herbicide test. The assay is classed as in vivo, Polygonum Persicaria. The source says: Seeds of plant species selected from corn (Zea mays), soybean (Glycine max), velvetleaf (Abutilon theophrasti), lambsquarters (Chenopodium album), wild poinsettia (Euphorbia heterophylla), pigweed, palmer (palmer pigweed, Amaranthus palmeri), waterhemp (common waterhemp, Amaranthus rudis), surinam grass (Brachiaria decumbens), crabgrass, large (large crabgrass, Digitaria sanguinalis), crabgrass, Brazil (Brazilian crabgrass, Digitaria horizontalis), panicum, fall (fall panicum, Panicum dichotomiflorum), foxtail, giant (giant foxtail, Setaria faberii), foxtail, green (green foxtail, Setaria viridis), goosegrass (Eleusine indica), johnsongrass (Sorghum halepense), ragweed (common ragweed, Ambrosia elatior), barnyardgrass (Echinochloa crus-galli), sandbur (southern sandbur, Cenchrus echinatus), arrowleaf […] rhombifolia), ryegrass, Italian (Italian ryegrass, Lolium multiflorum), dayflower, VA (Virginia dayflower, Commelina virginica), field bindweed (Convolvulus arvensis), morningglory (Ipomoea coccinea), nightshade (eastern black nightshade, Solanum ptycanthum), kochia (Kochia scoparia), nutsedge, yellow (yellow nutsedge, Cyperus esculentus), cocklebur (common cocklebur, Xanthium strumarium), smartweed (ladysthumb smartweed, Polygonum Persicaria) and beggarticks (hairy beggarticks, Bidens pilosa), were planted into a silt loam soil and treated preemergence with test chemicals formulated in a non-phytotoxic solvent mixture which included a surfactant. Treated plants and controls were maintained in a greenhouse for 21 days, after which time all species were compared to controls and visually evaluated. Plant response ratings, summarized in Table E, are based on a scale of 0 to 100 where 0 is no effect and 100 is complete control. A dash (-) response means no test result.

A further assay has as its system redstem. Kind of assay: Test F flood (paddy) test. The assay is classed as in vivo, Ammannia coccinea. The note with it: 21 d, scale 0-100. The text has this:
(§1) Three plastic pots (ca. 16-cm diameter) per rate were partially filled with sterilized Tama silt loam soil comprising a 35:50:15 ratio of sand, silt and clay and 2.6% organic matter. Separate plantings for each of the three pots were as follows. Seeds from the U.S. of monochoria (Monochoria vaginalis), sedge, umbrella (small-flower umbrella sedge, Cyperus difformis), bulrush, […] bulrush, Scirpus juncoides), and […] (purple […] coccinea), were planted into one 16-cm pot for each rate. Seeds from the U.S. of flatsedge, rice (rice flatsedge, Cyperus iria), sprangletop, Brdd. (bearded sprangletop, Leptochloa fascicularis), one stand of 9 or 10 water seeded rice seedlings (Rice, W.S. Jap, Oryza sativa cv. 'Japonica-[…]' or Rice, W.S. Ind, 'Indica'), and two stands of 3 or 4 seedlings of rice, transplanted (transplanted rice, Oryza sativa cv. 'Japonica-[…]') were planted into one 16-cm pot for each rate. Seeds from the U.S. of barnyardgrass (Echinochloa crus-galli), […] (common […], Alisma plantago-aquatica), and watergrass, late (late watergrass, Echinochloa oryzicola) were planted into one 16-cm pot for each rate. Plantings were sequential so that crop and weed species were at the 2.0 to 2.5-leaf stage at time of treatment. Potted plants were grown in a greenhouse with day/night temperature settings of 30/27° C., and supplemental balanced lighting was provided to maintain a 16-h photoperiod. Test pots were maintained in the greenhouse until test completion. At time of treatment, test pots were flooded to 3 cm above the soil surface, treated by application of test compounds directly to the paddy water, and then maintained at that water depth for the duration of the test. Effects of treatments on rice and weeds were visually evaluated by comparison to untreated controls after 21 d. Plant response ratings, summarized in Table F, are based on a scale of 0 to 100 where 0 is no effect and 100 is complete control. A dash (-) response means no test result.

The next assay relates to bulrush, hardstem. The assay is described as follows: Test F flood (paddy) test. The assay is classed as in vivo, Scirpus juncoides. Conditions: 21 d, scale 0-100.
Excerpt: as §1

In another assay the test system is canarygrass. Kind of assay: Test C postemergence herbicide test. It counts as in vivo, Phalaris minor. The source says: At the same time, plants selected from these crop and weed species and also barley (winter barley, Hordeum vulgare), […]), chickweed (common chickweed, Stellaria media), deadnettle (henbit deadnettle, Lamium amplexicaule), and canarygrass (littleseed canarygrass, Phalaris minor) were planted in pots containing Redi-Earth® planting medium (Scotts Company, 14111 Scottslawn Road, Marysville, Ohio 43041) comprising spaghnum peat moss, vermiculite, wetting agent and starter nutrients and treated with postemergence applications of test chemicals formulated in the same manner. Plants ranged in height from 2 to 18 cm (1- to 4-leaf stage) for postemergence treatments. Treated plants and controls were maintained in a greenhouse for 13 to 15 days, after which time all species were compared to controls and visually evaluated. Plant response ratings, summarized in Table C, are based on a scale of 0 to 100 where 0 is no effect and 100 is complete control. A dash (-) response means no test result.

Where [1] appears, read: 125 g ai/ha, scale 0 to 100 (0 no effect, 100 complete control).
Setting [2] is: 31 g ai/ha, scale 0 (no effect) to 100 (complete control).
Setting [3] is: 62 g ai/ha, scale 0 to 100 (0 no effect, 100 complete control).
[4] abbreviates: 250 g ai/ha, scale 0 to 100 (0 no effect, 100 complete control).

Molecules are shown by their SMILES.

Take `O=C1NCC(c2ccc(Cl)c(Cl)c2)C1C(=O)Nc1ccccc1F` (racemic) [Compound 14]: the “Plant response rating, Russian Thistle” value with Russian thistle (62 g ai/ha, scale 0 to 100) amounted to 0; in the assay on Russian thistle (setting [1]) it was 0. In the assay on smartweed (125 g ai/ha), the “Plant response rating, Smartweed” value turned out to be 0.
Consider `O=C1NCCC1C(=O)N(c1ccc(F)c(F)c1)c1ccccc1F` (stereo not shown) [Compound 5, N-(3,4-difluorophenyl)-N-(2-fluorophenyl)-2-oxo-3-pyrrolidinecarboxamide], for which, in the assay on Russian thistle (62 g ai/ha, scale 0 to 100), the “Plant response rating, Russian Thistle” value is given as 0. The “Plant response rating, Redstem” value in the assay with redstem (125 g ai/ha) is 0; with redstem (250 g ai/ha), 0; in the assay with redstem (500 g ai/ha) it was 40; in the assay on redstem (1000 g ai/ha), 45; in the assay on redstem (2000 g ai/ha) it was 45.
As for `O=C1NCC(c2ccc(F)c(F)c2)C1C(=O)Nc1cccc(F)c1F` (stereo not shown) [Compound 17, N-(2,3-difluorophenyl)-4-(3,4-difluorophenyl)-2-oxo-3-pyrrolidinecarboxamide], the “Plant response rating, Redstem” value is recorded as 0 with redstem (125 g ai/ha); 0 in the assay with redstem (250 g ai/ha); 0 with redstem (500 g ai/ha); 35 in the assay with redstem (1000 g ai/ha); 40 in the assay with redstem (2000 g ai/ha). In addition, the “Plant response rating, Bulrush, Hardstem” value in the assay on bulrush, hardstem (125 g ai/ha) is 0; in the assay on bulrush, hardstem (250 g ai/ha), 0; in the assay with bulrush, hardstem (500 g ai/ha), 0; with bulrush, hardstem (1000 g ai/ha), 0; with bulrush, hardstem (2000 g ai/ha), 40. Moreover, the “Plant response rating, Canarygrass” value in the assay on canarygrass (setting [2]), in the assay on canarygrass (setting [3]), with canarygrass (setting [1]) and in the assay with canarygrass (setting [4]) was 0 each time.
`O=C1NCC(c2cc(F)c(F)c(F)c2)C1C(=O)Nc1cccc(F)c1F` (stereo not shown) [Compound 48]: the “Plant response rating, Canarygrass” value in the assay with canarygrass (16 g ai/ha, scale 0 to 100 (0 no effect, 100 complete control)) turned out to be 0; in the assay on canarygrass (setting [2]), 0; with canarygrass (setting [3]), 0; with canarygrass (setting [1]), 0.
In the case of `O=C1NCC(c2cc(F)c(F)cc2F)C1C(=O)Nc1cccc(F)c1F` (stereo not shown) [Compound 50], the “Plant response rating, Canarygrass” value with canarygrass (setting [2]), in the assay with canarygrass (setting [3]), in the assay with canarygrass (setting [1]) and in the assay with canarygrass (setting [4]) was 0 in each case.
Take `O=C1NCC(c2ccc(Cl)c(F)c2)C1C(=O)Nc1cccc(F)c1F` (stereo not shown) [Compound 52]: the “Plant response rating, Canarygrass” value in the assay on canarygrass (setting [2]), in the assay with canarygrass (setting [3]), in the assay with canarygrass (setting [1]) and with canarygrass (setting [4]) was 0 throughout.
Consider `O=C1NCC(c2ccc(F)c(Cl)c2)C1C(=O)Nc1ccccc1F` (stereo not shown) [Compound 60], for which the “Plant response rating, Russian Thistle” value came out at 50 with Russian thistle (62 g ai/ha, scale 0 to 100) and 60 with Russian thistle (setting [1]). The “Plant response rating, Canarygrass” value in the assay on canarygrass (setting [2]), in the assay on canarygrass (setting [3]) and with canarygrass (setting [1]) was 0 throughout.
On to `O=C1NCC(c2ccc(C(F)(F)F)cc2)C1C(=O)Nc1cccc(F)c1F` (stereo not shown) [Compound 80, N-(2,3-difluorophenyl)-2-oxo-4-[4-(trifluoromethyl)phenyl]-3-pyrrolidinecarboxamide], for which the “Plant response rating, Smartweed” value in the assay on smartweed (16 g ai/ha) was found to be 0; in the assay with smartweed (31 g ai/ha), 0; in the assay with smartweed (62 g ai/ha), 20; in the assay with smartweed (250 g ai/ha) it was 40.
As to `CN1CC(c2ccc(F)c(F)c2)C(C(=O)Nc2cccc(F)c2F)C1=O` (stereo not shown) [Compound 303], the “Plant response rating, Redstem” value with redstem (62 g ai/ha) is 0; in the assay on redstem (125 g ai/ha), 0; in the assay with redstem (250 g ai/ha) it was 0; with redstem (500 g ai/ha) it was 30. The “Plant response rating, Bulrush, Hardstem” value with bulrush, hardstem (62 g ai/ha) is 0; in the assay with bulrush, hardstem (125 g ai/ha) it was 0; in the assay on bulrush, hardstem (250 g ai/ha), 70; with bulrush, hardstem (500 g ai/ha), 80.
